The values that follow come from article PMC10666288, “Unveiling the Catalytic Mechanism of a Processive Metalloaminopeptidase” (Biochemistry, 2023).

Holding throughout (design): GG stays after cleavage) (N); made in house; host or cells: E. coli BL21(DE3)
Test [1] deals with T1, PaPepA (Pseudomonas aeruginosa, UniProt Q02RY8). As to the kind of experiment: Metal activation of Leu-pNA cleavage (metal varied, Leu-pNA fixed). The format is biochemical. As to conditions: with 2 mM Leu-pNA. How it is done: A BMG Labtech POLARstar Omega plate reader was used for activity assays and kinetic studies involving amino acids conjugated to para-nitroaniline (pNA) (Sigma) or peptides as substrates. Assays were carried out at 25 °C in clear half-area 96-well plates (Greiner Bio-One). […] For kinetic assays investigating Leu-AMC as a substrate, a SpectraMax M2E was used. Reactions were carried out using black half-area 96-well plates with clear bottoms (Greiner Bio-One). Product formation was assessed by monitoring changes in fluorescence, with the excitation wavelength set at 341 nm and emission at 441 nm. The cutoff was 420 nm. PMT gain was set to medium, with six flashes per read. […] Calibration curves of pNA concentration vs absorbance and AMC vs fluorescence were constructed, and initial rate values were divided by the slope of these calibration curves to reveal the rate of product formation over time (Table S2).
T1 sequence (Q02RY8 whole entry): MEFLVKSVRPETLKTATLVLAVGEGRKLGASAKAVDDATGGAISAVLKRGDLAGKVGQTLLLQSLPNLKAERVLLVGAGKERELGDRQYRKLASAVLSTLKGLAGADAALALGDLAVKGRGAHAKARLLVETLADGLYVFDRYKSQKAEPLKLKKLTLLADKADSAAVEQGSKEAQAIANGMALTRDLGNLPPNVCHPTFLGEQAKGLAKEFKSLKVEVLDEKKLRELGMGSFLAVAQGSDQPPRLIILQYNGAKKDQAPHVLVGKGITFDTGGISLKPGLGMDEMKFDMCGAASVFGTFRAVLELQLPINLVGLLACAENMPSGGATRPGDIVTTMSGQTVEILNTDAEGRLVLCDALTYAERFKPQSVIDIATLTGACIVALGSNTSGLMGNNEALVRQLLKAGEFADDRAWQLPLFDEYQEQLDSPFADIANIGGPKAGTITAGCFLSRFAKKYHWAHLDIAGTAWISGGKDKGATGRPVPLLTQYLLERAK
For all assays excluding pH dependence curves, buffer conditions were as follows: 100 mM HEPES, 50 mM KCl, and pH 8.0. For assays carried out under pseudo-first-order conditions, one reaction component was fixed and in excess, while the other was varied. […] For assays involving variation of aa-pNA or aa-AMC, MnCl2 was added to a final concentration of 3 mM.

The target of test [2] is T1, PaPepA. Kind of test: Room-temperature EPR spectroscopy Mn2+ titration. As to conditions: 20 μM PaPepA, 1:0.9 enzyme:Mn^2+ binding model, to be taken as upper limit. Here is the method: EPR spectra were obtained with a Bruker EMX 10/12 spectrometer running Xenon software and equipped with an ELEXSYS Super Hi-Q resonator at an operating frequency of ∼9.5 GHz with a 100 kHz modulation. EPR spectra for Mn titrations were recorded at room temperature using a 160 mT field sweep centered at 350 mT, a time constant of 40.96 ms, a conversion time of 133.53 ms, and a 480-point resolution. An attenuation of 10 dB (20.7 mW power) and a modulation amplitude of 1 mT were used. Spectra were phase- and background-corrected, and the double integral was obtained using the Xenon software.
For acquiring EPR spectra, 20 μM PaPepA was used in 100 mM HEPES pH 7.5, 50 mM KCl with increasing concentration of MnCl2: 0–30 μM in steps of 2, 35, and 40 μM (18 steps). For the calibration curve, the same buffer and steps were employed in the absence of enzyme.

For test [3], the target named is T1, PaPepA. The format is biochemical. The source says:
Viscosity effects were studied by using sucrose as a viscogen. Relative viscosities for different concentrations of sucrose were taken from Bazelyansky et al.[27] Concentrations of viscogen were as follows: 14% sucrose, ηrel = 1.5; 24% sucrose, ηrel = 2.2; and 32% sucrose, ηrel = 2.9.
Viscosity effects were fit to the following equation, where kinetic parameter0 and kinetic parameterη are kcat or kcat/KM in the […] of viscogen, respectively, ηrel is the relative viscosity of the solution, and m is the slope. [drawing 4] 4
All measurements were performed in triplicate.

The mark [4] stands for this setting: H2O (0% PEG-8000), MnCl2 varied.

“And” between values parts separate entries of the source, which are not always exact repeats. Equal values may be shown once. Read-outs that look alike come from different tables or passages of the source.

For orientation: Kd means the equilibrium constant for the complex coming apart. A high value points to a looser complex. With `[Mn+2]` [Mn^2+], the KACT on PaPepA [1] (pH 8.0) turned out to be 0.10 ± 0.01 mM; at PaPepA [1] (pH 8.0, as given in text), 0.1 mM; on PaPepA [3] (setting [4]) it was 0.19 ± 0.01. In addition, the kcat at PaPepA [1] (pH 8.0) is 0.27 s^–1 and 0.274 ± 0.004 s^–1; at PaPepA [3] (H2O (0% PEG-8000), labelled component varied, other saturating, in 1/s) it was 0.409 ± 0.009. Besides, the kcat/KACT at PaPepA [1] (pH 8.0) was 2.7 ± 0.2 s^–1mM^–1; at PaPepA [3] (setting [4]), 2.2 ± 0.2. Further, the Kd on PaPepA [2] is 174 nM and ~174 nM. Also, on PaPepA [3] (sucrose as viscogen, Mn2+ variation), the “Slope (sucrose) on kcat/KACT” value is recorded as -0.10 ± 0.06. Further, at PaPepA [3] (sucrose as viscogen, labelled component varied), the “Slope (sucrose) on kcat” value was determined as 0.14 ± 0.05.
